Results on 34 compounds are retold here after PMC3894558, “Chemical signatures and new drug targets for gametocytocidal drug development” (Scientific Reports, 2014).

In the assay the test system is P. falciparum 3D7 gametocytes. As to the kind of experiment: alamarBlue gametocyte viability assay, strain 3D7. The note with it: for Max Resp: DMSO set at 0%, 100 nM epoxomicin set at -100%; for Curve Class / IC50 / pIC50: stages III-V 3D7 gametocytes; for IC50 / pIC50: 11 concentrations, 1:3 dilution; for pIC50: read-out: IC50. In kind it is cell-based, Plasmodium falciparum. A general note: The colour change of resazurin is a common sign of viable cells or microbes.

pIC50: −log10 of the molar value. Where two headings read alike, the source gives them in different places.

As to `C=CCc1c(C)nc2ccccc2c1O` [MMV006913], under “Malaria Box”, the “Max Resp” value was 0%, the “Curve Class” value amounted to 4 and the IC50 result is on record as “Inactive”.

Turning to `COc1ccc(C2c3ccc4ccccc4c3Oc3ncn(CCCn4ccnc4)c(=N)c32)cc1OC` (stereo not drawn) [MMV667490], for the setting “Malaria Box”, the “Max Resp” value was -79%; the “Curve Class” value is reported as -1.1; the pIC50 (usually the IC50 on a negative log10 scale, so that one unit is a factor of ten) was 5.38.

Consider `O=C(Nc1ccc(CN2CCOCC2)cc1)c1ccc(-c2ccc(Br)cc2)o1` [MMV665901], for which, where the note is “Malaria Box”, the “Max Resp” value is reported as -41%, the “Curve Class” value is -2.4 and the IC50 entry is “Inactive”.

Take `Cc1cc(NC(=O)c2cccc(C(F)(F)F)c2)n(-c2nc(-c3ccc4c(c3)OCO4)cs2)n1` [MMV396681]: for the setting “Malaria Box”, the “Max Resp” value is listed as -3%, the “Curve Class” value is 4 and the IC50 result was “Inactive”.

Consider `COc1ccc(N2CCN(C(CNC(=O)CC(C)(C)C)c3ccc4c(c3)OCO4)CC2)cc1` (stereo not drawn) [MMV665908], for which, under “Malaria Box”, the “Max Resp” value is -26%, the “Curve Class” value is given as 4 and the IC50 result is given as “Inactive”.

For the compound `CCOc1c(Cl)cc(CNCC(O)c2ccccc2)cc1OC` (stereo not drawn) [MMV396632], where the note is “Malaria Box”, the “Max Resp” value is reported as -76%, the “Curve Class” value is listed as -2.2 and the pIC50 was 5.03.

As to `CCOc1ccc(C2N(C)c3ccccc3N2C)cc1` [MMV075490], under “Malaria Box”, the “Max Resp” value is given as -38%, the “Curve Class” value is on record as -2.2 and the IC50 result is “Inactive”.

Regarding `CCOc1ccc(/C=C/c2nc(=O)c3ccccc3o2)cc1` [MMV665940], where the note is “Malaria Box”, the “Max Resp” value is recorded as 46%, the “Curve Class” value is 2.2 and the pIC50 was 4.73.

`CCOc1cc(CNC(C)C(O)c2ccccc2)cc(Cl)c1OCC` (stereo not drawn) [MMV396633]: where the note is “Malaria Box”, the “Max Resp” value is on record as -72%, the “Curve Class” value was -2.2 and the pIC50 was 4.93.

As for `Cc1ccc(CSCc2ccc(C(=O)NC3CC3)o2)cc1` [MMV007571], where the note is “Malaria Box”, the “Max Resp” value is 6%, the “Curve Class” value worked out at 4 and the IC50 entry is given as “Inactive”.

Consider `CCCCc1c(C)nc2c(OC)cccc2c1O` [MMV006820], for which, where the note is “Malaria Box”, the “Max Resp” value is recorded as 24%, the “Curve Class” value turned out to be 4 and the IC50 entry is on record as “Inactive”.

In the case of `Cl.c1ccc2c(NCCCCCCNc3c4c(nc5ccccc35)CCCC4)c3c(nc2c1)CCCC3` [MMV019555], where the note is “Malaria Box”, the “Max Resp” value is reported as -104%, the “Curve Class” value is on record as -1.1 and the pIC50 is 5.33.

Consider `COc1ccc(-c2cn3c(C(=O)Nc4ccccc4Cl)c(-c4ccccc4)c4c3n2CCCC4)cc1` [MMV020403], for which, for the setting “Malaria Box”, the “Max Resp” value is listed as -73%, the “Curve Class” value is recorded as -2.2 and the pIC50 was 4.63.

For `COc1ccc2sc(N(Cc3cccnc3)C(=O)c3ccc(C#N)cc3)nc2c1` [MMV001239], where the note is “Malaria Box”, the “Max Resp” value is -40%, the “Curve Class” value is reported as -2.2 and the IC50 entry is given as “Inactive”.

On to `FC(F)(F)c1cccc(Nc2nc3ccccc3nc2Nc2cccc(C(F)(F)F)c2)c1` [MMV665794], for which, under “Malaria Box”, the “Max Resp” value is -98%, the “Curve Class” value was -2.1 and the pIC50 was 4.73.

For the compound `COc1ccc(C(=O)Nc2ccc3nc(N4CCCCC4)cc(C)c3c2)cc1OC` [MMV019758], under “Malaria Box”, the “Max Resp” value is recorded as -32%, the “Curve Class” value is given as -3 and the IC50 result is “Inactive”.

In the case of `O=C(Nc1ccc(-c2nc3cc(NC(=O)c4ccc(Cl)cc4)ccc3[nH]2)cc1)c1ccc(Cl)cc1` [MMV006962], under “Malaria Box”, the “Max Resp” value is recorded as -94%, the “Curve Class” value is on record as -2.1 and the pIC50 was 4.93.

For `Cc1cc(NC(=O)c2ccc(-c3ccccc3)cc2)no1` [MMV018984], for the setting “Malaria Box”, the “Max Resp” value is 14%, the “Curve Class” value stood at 4 and the IC50 entry is listed as “Inactive”.

Turning to `CC1CCN(Cc2c(O)ccc3cc(-c4nc5ccccc5s4)c(=O)oc23)CC1` [MMV009127], where the note is “Malaria Box”, the “Max Resp” value is on record as -72%, the “Curve Class” value is recorded as -2.2 and the pIC50 is 4.53.

As for `Cc1cc(C=C2SC(=Nc3ccccc3)N(C3CCCC3)C2=O)c(C)n1-c1ccc(Cl)cc1` [MMV666688], where the note is “Malaria Box”, the “Max Resp” value was -20%, the “Curve Class” value amounted to 4 and the IC50 result is reported as “Inactive”.

In the case of `CCOc1ccc(Nc2c3ccccc3nc3ccccc23)cc1.Cl` [MMV000304], where the note is “Malaria Box”, the “Max Resp” value is -95%, the “Curve Class” value is listed as -2.1 and the pIC50 is 4.78.

In the case of `Cl.OC(CNCc1ccccc1)Cn1c2ccccc2c2ccccc21` (stereo not drawn) [MMV000839], where the note is “Malaria Box”, the “Max Resp” value is listed as -97%, the “Curve Class” value was -1.1 and the pIC50 is 5.08.

Consider `CCCCCCc1cc2cc(-c3csc(C=Cc4ccccc4)n3)c(=O)oc2cc1O` [MMV666692], for which, under “Malaria Box”, the “Max Resp” value was -54%, the “Curve Class” value is given as -2.2 and the pIC50 is 4.53.

As to `CCOC(=O)c1cnc2c(C)cccc2c1Nc1ccc(C(C)=O)cc1` [MMV006250], where the note is “Malaria Box”, the “Max Resp” value is 3%, the “Curve Class” value came to 4 and the IC50 result is given as “Inactive”.

Turning to `COc1ccc(C(C)=O)cc1N1C(=O)C2C(C1=O)C1(c3ccccc3)C(=O)C2(c2ccccc2)C(c2ccc(C)cc2)=C1c1ccc(C)cc1` (stereo not drawn) [MMV007695], for the setting “Malaria Box”, the “Max Resp” value was 17%, the “Curve Class” value is on record as 4 and the IC50 entry is listed as “Inactive”.

For `COc1ccc2nc(C)cc(Nc3ccc(Cl)cc3)c2c1` [MMV007875], where the note is “Malaria Box”, the “Max Resp” value was -72%, the “Curve Class” value is given as -2.2 and the pIC50 was 4.63.

Regarding `COc1ccc(-c2c(C)nn3c(N)c(C#N)cnc23)cc1OC` [MMV396797], where the note is “Malaria Box”, the “Max Resp” value is on record as -90%, the “Curve Class” value was -1.1 and the pIC50 was 5.18.

Regarding `COc1ccccc1N1C(=N)SC(=Cc2ccc(OCc3ccccc3F)cc2)C1=O` [MMV007199], under “Malaria Box”, the “Max Resp” value is on record as -2%, the “Curve Class” value amounted to 4 and the IC50 entry is “Inactive”.

For `COc1cc(-c2nc(-c3ccc(Sc4ccccc4)cc3)c(-c3ccccc3)[nH]2)cc(OC)c1O` [MMV007273], under “Malaria Box”, the “Max Resp” value is recorded as -62%, the “Curve Class” value is -2.2 and the pIC50 was 4.53.

Consider `CCOc1cc(Br)c(C(C)NC(=O)c2cccc(OC)c2)cc1OCC` (stereo not drawn) [MMV665796], for which, for the setting “Malaria Box”, the “Max Resp” value is -58%, the “Curve Class” value is -2.2 and the pIC50 is 4.43.

In the case of `COc1cc2c3cc1Oc1c(OC)c(OC)cc4c1C(Cc1ccc(O)c(c1)Oc1ccc(cc1)CC3N(C)CC2)N(C)CC4.Cl` (stereo not drawn) [MMV007474], under “Malaria Box”, the “Max Resp” value is recorded as -93%, the “Curve Class” value is -1.1 and the pIC50 was 5.23.

Take `CCCCCCn1c(=N)n(CC(O)COc2cccc(C)c2)c2ccccc21.Cl` (stereo not drawn) [MMV000445]: where the note is “Malaria Box”, the “Max Resp” value is -110%, the “Curve Class” value is listed as -1.1 and the pIC50 was 5.13.

With `CN(C)c1ccc(C(O)(c2ccc(N(C)C)cc2)c2ccc(N(C)C)cc2)cc1` [MMV665941], where the note is “Malaria Box”, the “Max Resp” value is reported as -118% and the “Curve Class” value is reported as -1.1. Further, where the note is “Plasmodium falciparum, 3D7, Malaria Box”, the pIC50 is 5.23.

Regarding `Cc1ccc(Nc2nc(-c3ccccn3)cs2)cc1` [MMV007907], where the note is “Malaria Box”, the “Max Resp” value is -73%, the “Curve Class” value is -2.2 and the pIC50 is 5.13.
